The target in the experiment is T1, iPLA2β (Group VIA Ca^2+-independent phospholipase A2) (Rattus norvegicus, UniProt P97570).
T1 construct: gene Pla2g6; iPLA2β overexpressed in INS-1 insulinoma cells (OE), cytosol
T1 sequence (P97570 1-807): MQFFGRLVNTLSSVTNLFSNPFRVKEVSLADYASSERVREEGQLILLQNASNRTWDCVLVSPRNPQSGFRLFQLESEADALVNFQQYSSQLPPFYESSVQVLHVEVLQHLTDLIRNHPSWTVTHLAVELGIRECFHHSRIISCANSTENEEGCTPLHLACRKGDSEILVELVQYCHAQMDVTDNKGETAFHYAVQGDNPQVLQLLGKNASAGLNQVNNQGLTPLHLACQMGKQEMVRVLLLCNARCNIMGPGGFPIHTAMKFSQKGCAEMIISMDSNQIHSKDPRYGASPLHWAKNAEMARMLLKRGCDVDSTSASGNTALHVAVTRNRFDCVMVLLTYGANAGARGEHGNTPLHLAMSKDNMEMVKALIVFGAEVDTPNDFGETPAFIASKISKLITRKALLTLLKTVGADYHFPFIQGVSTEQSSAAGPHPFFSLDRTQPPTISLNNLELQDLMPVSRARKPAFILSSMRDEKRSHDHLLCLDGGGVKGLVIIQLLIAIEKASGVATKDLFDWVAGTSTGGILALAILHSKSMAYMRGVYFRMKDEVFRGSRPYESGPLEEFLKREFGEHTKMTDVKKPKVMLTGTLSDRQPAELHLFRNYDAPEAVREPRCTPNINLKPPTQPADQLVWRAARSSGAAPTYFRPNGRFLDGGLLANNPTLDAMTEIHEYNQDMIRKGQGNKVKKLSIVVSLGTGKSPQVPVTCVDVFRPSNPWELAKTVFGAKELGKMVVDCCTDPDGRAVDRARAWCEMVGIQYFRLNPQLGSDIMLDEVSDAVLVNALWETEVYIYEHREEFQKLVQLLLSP
Briefly: radioactive PLA2 activity assay ([…]-PAPC) in cytosol of iPLA2β-overexpressing INS-1 cells. Type of experiment: biochemical.

Each structure is given as a SMILES string.

Regarding `O=C(CCCCc1ccc2ccccc2c1)C(F)(F)F` [FKGK18, 1,1,1-trifluoro-6-(naphthalen-2-yl)hexan-2-one], the IC50 was approximately 50 nM.
For `O=C1O/C(=C/Br)CC[C@@H]1c1cccc2ccccc12` [R-BEL, (E)-6-(bromo-methylene) tetrahydro-3-(1-naphthalenyl)-2H-pyran-2-one], the IC50 was approximately 3000 nM.

For orientation: IC50 means the midpoint of a concentration-inhibition curve.

(Values after PMC3748103, “Characterization of FKGK18 as Inhibitor of Group VIA Ca^2+-Independent Phospholipase A2 (iPLA2β): Candidate Drug for Preventing Beta-Cell Apoptosis and Diabetes” (PLoS ONE, 2013).)
